Results reported in patent publication US10597388B2, “Pyridazinone herbicides” (FMC CORPORATION, priority 2014, dated 2020).

Columns and labels:
Assay in all cases: Test D controlled growth environment herbicide test, pre- and postemergence
Assay type in all cases: in vivo
[1] = system: chamomile (scentless chamomile, Matricaria inodora)
Summary of the method: (§1)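 Species sown in silt loam and sprayed preemergence, or grown in peat-based medium to 2–18 cm (1- to 4-leaf stage) and sprayed postemergence, with compounds in non-phytotoxic solvent plus surfactant. Visual injury scored versus controls after 14–21 d in a controlled environment, 0 (no effect) to 100 (complete control).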

[2] = system: kochia (Kochia scoparia)
Summary of the method: as §1

[3] = system: speedwell (bird's-eye speedwell, Veronica persica)
Summary of the method: as §1

[4] = system: deadnettle (henbit deadnettle, Lamium amplexicaule)
Summary of the method: as §1

[5] = system: blackgrass (Alopecurus myosuroides)
Summary of the method: as §1

[6] = system: field violet (Viola arvensis)
Summary of the method: as §1

[7] = system: lambsquarters (Chenopodium album)
Summary of the method: as §1

[8] = system: ryegrass, Italian (Italian ryegrass, Lolium multiflorum)
Summary of the method: as §1

[9] = system: wheat, winter (winter wheat, Triticum aestivum)
Summary of the method: as §1

[10] = system: chickweed (common chickweed, Stellaria media)
Summary of the method: as §1

[11] = system: Russian thistle (Salsola kali)
Summary of the method: as §1

[12] = system: radish, wild (wild radish, Raphanus raphanistrum)
Summary of the method: as §1

[13] = system: bromegrass, downy (downy bromegrass, Bromus tectorum)
Summary of the method: as §1

[14] = system: windgrass (Apera spica-venti)
Summary of the method: as §1

[15] = Postemergence, 31 g ai/ha, scale 0 to 100 (0 no effect, 100 complete control)
[16] = Postemergence, 125 g ai/ha, visual rating on scale 0 (no effect) to 100 (complete control), 14 to 21 d
[17] = Postemergence, 250 g ai/ha, scale 0 to 100 (0 no effect, 100 complete control)
[18] = Preemergence, 125 g ai/ha, scale 0 to 100 (0 no effect, 100 complete control)
[19] = Preemergence, 250 g ai/ha, scale 0 to 100, 0 no effect, 100 complete control
[20] = postemergence, 62 g ai/ha, scale 0 to 100, 0 no effect, 100 complete control
[21] = Preemergence, 62 g ai/ha, scale 0 to 100 (0 no effect, 100 complete control)

Cc1nn(C)c(=O)c(-c2cccc3ccc(Br)cc23)c1O [Compound 126]
Chamomile plant response rating [1, 15]: 70 | Plant response rating, Chamomile [1, 16]: 98 | Plant response rating, Chamomile [1, 17]: 100 | Plant response rating (scale of 0 to 100), Chamomile ([1]; Preemergence, 31 g ai/ha): 85 | Plant response rating (scale of 0 to 100), Chamomile ([1]; Preemergence, 62 g ai/ha): 100 | Plant response rating, Chamomile [1, 18]: 100 | Plant response rating, Chamomile [1, 19]: 100 | Plant response rating, Chamomile [1, 20]: 95 | Kochia plant response rating [2, 15]: 75 | Plant response rating, Kochia [2, 16]: 95 | Plant response rating, Kochia [2, 17]: 100 | Plant response rating (scale of 0 to 100), Kochia ([2]; Preemergence, 31 g ai/ha): 10 | Plant response rating (scale of 0 to 100), Kochia ([2]; Preemergence, 62 g ai/ha): 20 | Plant response rating, Kochia [2, 18]: 75 | Plant response rating, Kochia [2, 19]: 95 | Plant response rating, Kochia [2, 20]: 80 | Speedwell plant response rating [3, 15]: 60 | Plant response rating, Speedwell [3, 16]: 100 | Plant response rating, Speedwell [3, 17]: 100 | Plant response rating (scale of 0 to 100), Speedwell ([3]; Preemergence, 31 g ai/ha): 70 | Plant response rating (scale of 0 to 100), Speedwell ([3]; Preemergence, 62 g ai/ha): 100 | Plant response rating, Speedwell [3, 18]: 100 | Plant response rating, Speedwell [3, 19]: 100 | Plant response rating, Speedwell [3, 20]: 65 | Deadnettle plant response rating [4, 15]: 40 | Plant response rating, Deadnettle [4, 16]: 80 | Plant response rating, Deadnettle [4, 17]: 85 | Plant response rating (scale of 0 to 100), Deadnettle ([4]; Preemergence, 31 g ai/ha): 0 | Plant response rating (scale of 0 to 100), Deadnettle ([4]; Preemergence, 62 g ai/ha): 45 | Plant response rating, Deadnettle [4, 18]: 70 | Plant response rating, Deadnettle [4, 19]: 80 | Plant response rating, Deadnettle [4, 20]: 70 | Blackgrass plant response rating [5, 15]: 15 | Plant response rating, Blackgrass [5, 16]: 30 | Plant response rating, Blackgrass [5, 17]: 45 | Plant response rating (scale of 0 to 100), Blackgrass ([5]; Preemergence, 31 g ai/ha): 25 | Plant response rating, Blackgrass [5, 21]: 45 | Plant response rating, Blackgrass [5, 18]: 55 | Plant response rating, Blackgrass [5, 19]: 65 | Plant response rating, Blackgrass [5, 20]: 20 | Field Violet plant response rating [6, 15]: 85 | Plant response rating, Field Violet [6, 16]: 90 | Plant response rating, Field Violet [6, 17]: 100 | Plant response rating (scale of 0 to 100), Field Violet ([6]; Preemergence, 31 g ai/ha): 85 | Plant response rating (scale of 0 to 100), Field Violet ([6]; Preemergence, 62 g ai/ha): 85 | Plant response rating, Field Violet [6, 18]: 100 | Plant response rating, Field Violet [6, 19]: 100 | Plant response rating, Field Violet [6, 20]: 85 | Lambsquarters plant response rating [7, 15]: 90 | Plant response rating, Lambsquarters [7, 16]: 100 | Plant response rating, Lambsquarters [7, 17]: 100 | Plant response rating (scale of 0 to 100), Lambsquarters ([7]; Preemergence, 31 g ai/ha): 100 | Plant response rating (scale of 0 to 100), Lambsquarters ([7]; Preemergence, 62 g ai/ha): 100 | Plant response rating, Lambsquarters [7, 18]: 75 | Plant response rating, Lambsquarters [7, 19]: 100 | Plant response rating, Lambsquarters [7, 20]: 98 | Ryegrass, Italian plant response rating [8, 15]: 85 | Plant response rating, Ryegrass, Italian [8, 16]: 90 | Plant response rating, Ryegrass, Italian [8, 17]: 90 | Plant response rating (scale of 0 to 100), Ryegrass, Italian ([8]; Preemergence, 31 g ai/ha): 75 | Plant response rating (scale of 0 to 100), Ryegrass, Italian ([8]; Preemergence, 62 g ai/ha): 90 | Plant response rating, Ryegrass, Italian [8, 18]: 98 | Plant response rating, Ryegrass, Italian [8, 19]: 100 | Plant response rating, Ryegrass, Italian [8, 20]: 90 | Wheat, Winter plant response rating [9, 15]: 0 | Plant response rating, Wheat, Winter [9, 16]: 0 | Plant response rating, Wheat, Winter [9, 17]: 0 | Plant response rating (scale of 0 to 100), Wheat, Winter ([9]; Preemergence, 31 g ai/ha): 0 | Plant response rating (scale of 0 to 100), Wheat, Winter ([9]; Preemergence, 62 g ai/ha): 0 | Plant response rating, Wheat, Winter [9, 18]: 0 | Plant response rating, Wheat, Winter [9, 19]: 0 | Plant response rating, Wheat, Winter [9, 20]: 0 | Chickweed plant response rating [10, 15]: 80 | Plant response rating, Chickweed [10, 16]: 100 | Plant response rating, Chickweed [10, 17]: 100 | Plant response rating (scale of 0 to 100), Chickweed ([10]; Preemergence, 31 g ai/ha): 70 | Plant response rating (scale of 0 to 100), Chickweed ([10]; Preemergence, 62 g ai/ha): 98 | Plant response rating, Chickweed [10, 18]: 100 | Plant response rating, Chickweed [10, 19]: 100 | Plant response rating, Chickweed [10, 20]: 98 | Russian Thistle plant response rating [11, 15]: 30 | Plant response rating, Russian Thistle [11, 16]: 80 | Plant response rating, Russian Thistle [11, 17]: 85 | Plant response rating (scale of 0 to 100), Russian Thistle ([11]; Preemergence, 31 g ai/ha): 0 | Plant response rating (scale of 0 to 100), Russian Thistle ([11]; Preemergence, 62 g ai/ha): 0 | Plant response rating, Russian Thistle [11, 18]: 5 | Plant response rating, Russian Thistle [11, 19]: 15 | Plant response rating, Russian Thistle [11, 20]: 40 | Radish, Wild plant response rating [12, 15]: 40 | Plant response rating, Radish, Wild [12, 16]: 75 | Plant response rating, Radish, Wild [12, 17]: 95 | Plant response rating (scale of 0 to 100), Radish, Wild ([12]; Preemergence, 31 g ai/ha): 5 | Plant response rating (scale of 0 to 100), Radish, Wild ([12]; Preemergence, 62 g ai/ha): 15 | Plant response rating, Radish, Wild [12, 18]: 75 | Plant response rating, Radish, Wild [12, 19]: 90 | Plant response rating, Radish, Wild [12, 20]: 70 | Bromegrass, Downy plant response rating [13, 15]: 5 | Plant response rating, Bromegrass, Downy [13, 16]: 20 | Plant response rating, Bromegrass, Downy [13, 17]: 25 | Plant response rating (scale of 0 to 100), Bromegrass, Downy ([13]; Preemergence, 31 g ai/ha): 0 | Plant response rating, Bromegrass, Downy [13, 21]: 0 | Plant response rating, Bromegrass, Downy [13, 18]: 20 | Plant response rating, Bromegrass, Downy [13, 19]: 30 | Plant response rating, Bromegrass, Downy [13, 20]: 10 | Windgrass plant response rating [14, 15]: 0 | Plant response rating, Windgrass [14, 16]: 30 | Plant response rating, Windgrass [14, 17]: 55 | Plant response rating (scale of 0 to 100), Windgrass ([14]; Preemergence, 31 g ai/ha): 25 | Plant response rating (scale of 0 to 100), Windgrass ([14]; Preemergence, 62 g ai/ha): 35 | Plant response rating, Windgrass [14, 18]: 75 | Plant response rating, Windgrass [14, 19]: 85 | Plant response rating, Windgrass [14, 20]: 20
